Melting point data for 1 compound are collected here from patent US7312356B2, “Medicament” (Cyclacel Limited, priority 2001, dated 2007).

Molecules are shown by their SMILES.

For orientation: melting point means the temperature of the solid-liquid transition. As for `CC(=O)OC[C@@]1(C(=O)O)CC[C@]2(C)C(CCC3[C@@]4(C)CC[C@H](OC(C)=O)C(C)(C)C4CC[C@]32C)C1=O` (stereo partly drawn) [(7), 3β,28-Diacetoxy-18-oxo-19,20,21,29,30-pentanorlupan-22-oic Acid], the melting point lay in the range of 142 to 144 °C.
